Source: patent US10195179B2, “Spiro-lactam NMDA receptor modulators and uses thereof” (Aptinyx Inc., priority 2016, dated 2019)
Where two headings read alike, the source gives them in different places.

Columns and labels:
[1] = tested on: rat; test: Positive emotional learning (PEL) test, 50-kHz USVs; format: in vivo; settings: administered one hour prior to PEL testing
Procedure: Experiments were conducted as described in Burgdorf et al., “The effect of selective breeding for differential rates of 50-kHz ultrasonic vocalizations on emotional behavior in rats,” Devel. Psychobiol., 51:34-46 (2009).
The PEL assay measures the acquisition of positive (hedonic) 50-kHz ultrasonic vocalizations (USVs) to a social stimulus, heterospecific rough and tumble play stimulation. Heterospecific rough-and-tumble play stimulation was administered by the experimenter's right hand. Animals received 3 min of heterospecific rough-and-tumble play that consisted of alternating 15 sec blocks of heterospecific play and 15 sec of no-stimulation. High frequency ultrasonic vocalizations (USVs) were recorded and analyzed by sonogram with Avasoft SASlab Pro (Germany) as previously described by Burgdorf et al., “Positive emotional learning is regulated in the medial prefrontal cortex by GluN2B-containing NMDA receptors,” Neuroscience, 192:515-523 (2011). Frequency modulated 50-kHz USVs that occurred during each of the no-stimulation periods were quantified to measure PEL. Animals were not habituated to play stimulation before testing. Positive emotional learning was measured during the conditioned stimulus (CS) trials preceding the tickle unconditioned stimulus (UCS) trials. […] Running speed for animals to self administer tickling at the end of the 3 min session was also measured.

[2] = target: NR2D (Homo sapiens, UniProt O15399); test: Potentiation of [3H]MK-801 binding, wild-type NMDAR2D; design: species or system rat
Sequence of NR2D (O15399 28-1336, species assumed, other chains not shown): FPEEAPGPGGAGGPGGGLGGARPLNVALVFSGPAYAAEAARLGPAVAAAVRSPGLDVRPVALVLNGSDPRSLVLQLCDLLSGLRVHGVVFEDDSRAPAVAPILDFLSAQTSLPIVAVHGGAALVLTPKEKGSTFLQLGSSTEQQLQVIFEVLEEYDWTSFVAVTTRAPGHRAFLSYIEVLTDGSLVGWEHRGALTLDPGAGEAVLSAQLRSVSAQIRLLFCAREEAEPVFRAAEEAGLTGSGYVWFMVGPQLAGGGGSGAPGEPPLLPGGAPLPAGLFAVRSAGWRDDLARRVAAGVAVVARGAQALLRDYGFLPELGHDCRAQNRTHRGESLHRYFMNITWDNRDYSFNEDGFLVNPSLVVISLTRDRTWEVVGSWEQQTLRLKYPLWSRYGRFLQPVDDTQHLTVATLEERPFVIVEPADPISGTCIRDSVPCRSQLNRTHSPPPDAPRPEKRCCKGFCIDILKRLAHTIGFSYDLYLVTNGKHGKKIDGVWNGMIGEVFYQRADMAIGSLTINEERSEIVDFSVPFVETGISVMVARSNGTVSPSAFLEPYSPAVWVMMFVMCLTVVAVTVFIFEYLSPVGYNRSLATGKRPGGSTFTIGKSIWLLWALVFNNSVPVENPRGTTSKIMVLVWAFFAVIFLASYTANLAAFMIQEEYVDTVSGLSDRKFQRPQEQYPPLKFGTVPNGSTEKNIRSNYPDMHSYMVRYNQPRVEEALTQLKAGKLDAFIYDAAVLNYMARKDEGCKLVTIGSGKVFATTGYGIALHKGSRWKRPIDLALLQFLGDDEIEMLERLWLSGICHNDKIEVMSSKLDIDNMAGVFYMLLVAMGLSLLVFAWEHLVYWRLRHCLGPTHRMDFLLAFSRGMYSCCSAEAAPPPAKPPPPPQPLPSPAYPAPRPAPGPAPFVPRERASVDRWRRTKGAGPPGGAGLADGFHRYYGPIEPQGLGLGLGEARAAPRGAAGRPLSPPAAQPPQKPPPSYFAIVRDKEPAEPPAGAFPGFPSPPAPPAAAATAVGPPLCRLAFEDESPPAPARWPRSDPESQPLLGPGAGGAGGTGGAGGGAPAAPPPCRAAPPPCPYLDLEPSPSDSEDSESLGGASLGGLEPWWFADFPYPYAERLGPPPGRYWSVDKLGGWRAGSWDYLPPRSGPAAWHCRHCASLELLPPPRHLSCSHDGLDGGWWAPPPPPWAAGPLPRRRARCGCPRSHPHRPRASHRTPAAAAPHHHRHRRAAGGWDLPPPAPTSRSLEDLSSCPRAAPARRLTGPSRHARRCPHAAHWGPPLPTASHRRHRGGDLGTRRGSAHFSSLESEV
Procedure: Assays were conducted as described by Moskal et al., “GLYX-13: a monoclonal antibody-derived peptide that acts as an N-methyl-D-aspartate receptor modulator,” Neuropharmacology, 49, 1077-87, 2005. The potentiation of [^3H]MK-801 binding (5 nM; 22.5 Ci/mmol) to well washed rat cortical membranes (200 μg) was measured under non-equilibrium conditions (15 min @ 25° C.) in the presence of increasing concentrations of Compound AA or Compound BB.
FIG. 2A depicts the potentiation of [^3H]MK-801 binding for wild-type NMDAR2 subtypes in the presence of Compound AA. FIG. 2B depicts the potentiation of [^3H]MK-801 binding for wild-type NMDAR2 subtypes in the presence of Compound BB. The following table depicts the results (P means potency and A means activity): […]

[3] = target: NR2A (Homo sapiens, UniProt Q12879); test: Potentiation of [3H]MK-801 binding, wild-type NMDAR2A; design: species or system rat
Sequence of NR2A (Q12879 23-1464, species assumed, other chains not shown): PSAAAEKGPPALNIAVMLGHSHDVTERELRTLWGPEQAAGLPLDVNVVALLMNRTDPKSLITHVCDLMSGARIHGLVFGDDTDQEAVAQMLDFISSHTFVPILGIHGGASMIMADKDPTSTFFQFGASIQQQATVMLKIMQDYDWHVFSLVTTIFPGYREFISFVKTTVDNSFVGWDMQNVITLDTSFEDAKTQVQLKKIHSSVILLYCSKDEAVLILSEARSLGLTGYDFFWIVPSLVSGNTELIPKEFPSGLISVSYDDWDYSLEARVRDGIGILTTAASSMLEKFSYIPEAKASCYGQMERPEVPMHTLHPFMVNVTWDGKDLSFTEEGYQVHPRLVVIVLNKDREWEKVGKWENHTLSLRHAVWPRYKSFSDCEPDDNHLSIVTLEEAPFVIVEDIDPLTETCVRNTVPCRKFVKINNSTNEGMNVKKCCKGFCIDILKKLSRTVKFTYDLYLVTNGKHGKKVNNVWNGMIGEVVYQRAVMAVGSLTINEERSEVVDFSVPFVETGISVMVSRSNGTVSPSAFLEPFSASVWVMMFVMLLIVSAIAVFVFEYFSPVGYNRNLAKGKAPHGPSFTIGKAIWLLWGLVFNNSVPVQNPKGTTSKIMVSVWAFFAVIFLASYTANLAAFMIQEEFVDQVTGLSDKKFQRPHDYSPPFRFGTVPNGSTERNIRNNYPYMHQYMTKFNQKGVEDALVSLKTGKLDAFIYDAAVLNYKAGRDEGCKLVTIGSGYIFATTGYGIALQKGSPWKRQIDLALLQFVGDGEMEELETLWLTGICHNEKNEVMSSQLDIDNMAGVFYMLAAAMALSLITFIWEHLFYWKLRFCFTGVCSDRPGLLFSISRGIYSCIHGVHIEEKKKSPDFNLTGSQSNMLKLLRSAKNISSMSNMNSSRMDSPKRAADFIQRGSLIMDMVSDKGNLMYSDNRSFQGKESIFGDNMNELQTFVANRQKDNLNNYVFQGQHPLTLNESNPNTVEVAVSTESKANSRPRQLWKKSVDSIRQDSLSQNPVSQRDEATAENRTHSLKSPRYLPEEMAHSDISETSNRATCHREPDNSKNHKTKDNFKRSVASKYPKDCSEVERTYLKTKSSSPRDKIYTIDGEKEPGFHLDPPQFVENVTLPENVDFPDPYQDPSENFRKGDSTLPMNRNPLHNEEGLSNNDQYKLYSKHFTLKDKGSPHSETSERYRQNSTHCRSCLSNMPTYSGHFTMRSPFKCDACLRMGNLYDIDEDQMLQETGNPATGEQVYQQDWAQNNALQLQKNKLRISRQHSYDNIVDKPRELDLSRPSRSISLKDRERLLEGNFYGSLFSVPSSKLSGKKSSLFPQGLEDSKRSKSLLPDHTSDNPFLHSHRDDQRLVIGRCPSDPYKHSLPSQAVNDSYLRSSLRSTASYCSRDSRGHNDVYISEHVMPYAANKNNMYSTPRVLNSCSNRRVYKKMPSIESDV

[4] = Plasma stability, human; format: in vitro ADME
Procedure: Plasma stability for Compound AA and Compound BB was investigated. The following table indicates the percent of Compound AA and Compound BB remaining after 60 minutes.

[5] = Plasma protein binding assay, rat; format: in vitro ADME; settings: read-out: Plasma Protein binding (% Bound) Plasma rat (converted)
Procedure: Bound drug concentration in the brain was also investigated, and plasma protein binding assays were conducted. The following table (% bound) indicates results for Compound AA and Compound BB.

[6] = Bioavailability and CSF/brain/plasma exposure after PO administration; format: in vivo, Sprague Dawley rats; settings: rat; for Kp: male, Sprague Dawley, 10 mg/kg PO
Procedure: The bioavailablity of Compound BB was investigated following PO administration. CSF, brain and plasma samples were analyzed following dosing with compound BB (10 mg/kg). The following table indicates the bioavailablity and CSF/plasma and brain/plasma ratios.
Sprague Dawley rats were dosed intravenously with 2 mg/kg of Compound AA. A second group of Sprague Dawley rats was dosed per os with 10 mg/kg of compound AA. Plasma samples were drawn over a 24 h period and analyzed for Compound AA. FIG. 3A presents the mean plasma concentration-time profile of Compound AA following the single intraveneous (2 mg/kg) and oral (10 mg/kg) dose administration in male Sprague Dawley rats over the 24 hour period.
In another experiment. Sprague Dawley rats were dosed intravenously with 2 mg/kg of Compound BB. A second group of Sprague Dawley rats was dosed per os with 10 mg/kg of compound BB. Plasma samples were drawn over a 24 h period and analyzed for Compound BB. FIG. 3B presents the mean plasma concentration-time profile of Compound BB following the single intraveneous (2 mg/kg) and oral (10 mg/kg) dose administration in male Sprague Dawley rats over the 24 hour period.
In another experiment, Sprague Dawley rats were dosed per os with 10 mg/kg of Compound BB. Plasma, brain, and CSF samples were analyzed at various time points over a 24 hour period.

[7] = potentiation of [3H]MK-801 binding

With `C[C@@H](O)[C@@H](C(N)=O)N1C[C@@]2(CCCN2S(C)(=O)=O)C1=O` [Compound BB, (2S,3R)-3-hydroxy-2-((S)-5-(methylsulfonyl)-1-oxo-2,5-diazaspiro[3,4]octan-2-yl)butanamide] the “positive emotional learning as measured by rat USVs” value [1] was “increases positive emotional learning”, the “NR2D A (%) (activity)” value [2, 7] was 57.41% and the EC50 ([2]; potentiation of [3H]MK-801 binding, 0 = no activity, read-out: NR2D P (M) (potency) (converted)) was 5.62e-11 M. For the same compound, the “NMDAR2D BINDING PROFILE % 1 mM Glycine” value ([2]; relative to 1 mM glycine) was 57.41%, the “binding to NR2D (in words)” value ([2]; statement in description) was “binds” and the “NMDAR2D BINDING PROFILE Conclusion” value ([2]; wild-type NMDAR2D) was “WT2D agonist”. The EC50 ([2]; wild-type NMDAR2D, read-out: NMDAR2D BINDING PROFILE −logEC50 (converted)) was 5.62e-11 M, the “NR2A A (%) (activity)” value [3, 7] was 0% and the “NMDAR2A BINDING PROFILE % 1 mM Glycine” value ([3]; relative to 1 mM glycine) was 0%. The “binding to NR2A (in words)” value ([3]; statement in description) was “substantially no binding”, the “NMDAR2A BINDING PROFILE Conclusion” value ([3]; wild-type NMDAR2A) was “WT2A no” and the “Plasma Stability (% remaining at 60 min) Human” value [4] was 81%. The fraction unbound [5] was 0.65, the Kp ([6]; CSF, read-out: CSF/plasma ratio) was 0.48 and the Kp ([6]; brain, read-out: Brain/plasma ratio) was 0.12. The bioavailability ([6]; plasma, PO administration (10 mg/kg PO, 2 mg/kg IV), male Sprague Dawley rats, read-out: Bioavailablity (% F)) was 82%.
